These results are taken from PubChem BioAssay (NCI).

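A five-concentration, 48-hour dose response in 96-well plates underlies each endpoint, interpolated linearly between surrounding concentrations. GI50 marks 50% less growth. At the TGI there is no net growth.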

What all share (assay): inhibition of tumour cell growth, NCI panel, 48 h
For assay [1], the system named is CAKI-1 renal.
Assay [2] deals with HL-60(TB) leukemia.
Assay [3] deals with HS 578T breast.
Assay [4] deals with LOX IMVI melanoma.
The test system of assay [5] is MDA-MB-231 breast.
The test system of assay [6] is MDA-MB-435.
The subject of assay [7] is MOLT-4 leukemia.
Assay [8] concerns OVCAR-5 ovarian.
The test system of assay [9] is SF-295 CNS.
The subject of assay [10] is SK-OV-3 ovarian.

On to `CC(=O)NS(=O)(=O)c1ccc(-n2nc(-c3ccccc3)cc2C2=CC(=O)C=CC2=O)cc1`, for which the GI50 is greater than 100 µM in assay [1]; greater than 100 µM in assay [2]; 22.3 µM in assay [3]; greater than 100 µM in assay [4]; greater than 100 µM in assay [5]; greater than 100 µM in assay [6]. In addition, the GI50 in [7] is 16.4 µM; in assay [8] it was greater than 100 µM; in assay [9], greater than 100 µM. The TGI in assay [1], in assay [2], in assay [3], in assay [4], in [5] and in assay [6] was greater than 100 µM in each case. Besides, the TGI was 73.7 µM in assay [7], greater than 100 µM in assay [8] and greater than 100 µM in assay [9].

Consider `CCCNc1cccc(-n2ncc3c(N/N=C/c4ccncc4)ncnc32)c1`, for which the GI50 in [1] is 1.1 µM; in assay [3], 1.1 µM; in [5], greater than 25 µM; in [6], 0.757 µM; in assay [7], greater than 25 µM; in assay [8], greater than 25 µM. Further, the GI50 in [9] was 3.58 µM; in assay [10] it was 6.92 µM. The TGI in assay [1], in assay [3], in [5], in [6], in assay [7] and in assay [8] was greater than 25 µM throughout. Further, the TGI in assay [9] and in assay [10] was greater than 25 µM each time.

Regarding `COc1cc(CNC(=O)CCSc2nc3ccccc3c(=O)n2Cc2cc(OC)c(OC)c(OC)c2)cc(OC)c1OC`, the GI50 is 5.46 µM in assay [1]; 3.57 µM in assay [2]; 5.24 µM in [3]; 7.05 µM in assay [4]; 5.36 µM in [5]; 7.38 µM in assay [7]. Further, the GI50 is 9.38 µM in [8], 4.36 µM in assay [9] and 5.34 µM in assay [10]. The TGI in assay [1] was greater than 100 µM; in assay [2], greater than 100 µM; in [3] it was greater than 100 µM; in assay [4], greater than 100 µM; in [5] it was 48.3 µM; in [7], greater than 100 µM. The figures for the TGI in assay [8], in assay [9] and in [10] were greater than 100 µM, greater than 100 µM and 18.6 µM, respectively.

In the case of `Cc1cc(Cl)ccc1NC(=O)NC(C)(C)COC(=O)Nc1cccc(Cl)c1`, the GI50 was 4.38 µM in [1]; 9.71 µM in assay [2]; 5.65 µM in assay [3]; 5.45 µM in [5]; 10.9 µM in assay [6]; 6.19 µM in assay [7]. The GI50 in [8] was 8.1 µM; in [9], 0.945 µM; in assay [10] it was 22.5 µM. The TGI in [1] amounted to 75.3 µM; in assay [2], 71.9 µM; in [3], 39 µM; in assay [5], 26 µM; in [6] it was 49.4 µM; in [7] it was 79 µM. Also, the TGI in [8] is greater than 100 µM; in assay [9], 8.31 µM; in assay [10], 96 µM.

As to `CC(C)=CCC/C(C)=C/[C@H]1OC(=O)CC12C[C@H](O)C=CC2=O` (stereo not given in full), the GI50 in assay [1] was 0.827 µM; in [2], 0.323 µM; in assay [3] it was 1.81 µM; in assay [5] it was 1.55 µM; in assay [6], 0.458 µM; in assay [8], 1.14 µM. In addition, the GI50 is 1.98 µM in assay [9] and 1.44 µM in [10]. Besides, the TGI in [1] was 2.3 µM; in [2] it was 1.11 µM; in [3], 5.02 µM; in [5], 3.29 µM; in assay [6], 1.64 µM; in assay [8], 2.54 µM. Besides, the values for the TGI in [9] and in assay [10] were 4.69 µM and 3.19 µM, respectively.

Consider `CC(=O)Nc1cc2cc(NS(=O)(=O)c3cc(C(F)(F)F)cc(C(F)(F)F)c3)ccc2oc1=O`, for which the TGI in [1], in assay [2], in assay [3], in assay [4], in assay [5] and in assay [6] was greater than 100 µM each time. Besides, the TGI in assay [7], in assay [8] and in assay [9] was greater than 100 µM each time.

As to `CC(=O)O[C@H](C[C@H](C(C)C)N(C)C(=O)[C@@H](NC(=O)[C@H]1CCCCN1C)C(C)(C)C)c1nc(C(=O)N[C@@H](Cc2ccccc2)C[C@H](C)C(=O)O)cs1`, the GI50 in assay [1], in assay [2], in [3], in assay [4], in assay [5] and in assay [7] was less than 0.0025 µM in each case. For the same molecule, the GI50 in assay [8], in assay [9] and in assay [10] was less than 0.0025 µM each time. The TGI in assay [1] is greater than 25 µM; in assay [2] it was less than 0.0025 µM; in [3], greater than 23.6 µM; in assay [4], greater than 25 µM; in assay [7] it was greater than 25 µM; in assay [8] it was greater than 25 µM. The TGI was greater than 8.94 µM in assay [9] and greater than 25 µM in assay [10].

`Cc1cc(O)c2c(c1)C(=O)C(c1c(C)cc3c(c1O)C(=O)C1OC1C3=O)=CC2=O` (stereo not given): the TGI in assay [1] worked out at 2.11 µM; in [2], 0.0151 µM; in assay [3], 98.9 µM; in assay [4], 5.87 µM; in [5], 4.14 µM; in assay [6] it was 7.71 µM. The TGI came out at 13 µM in assay [8], 32.6 µM in assay [9] and 38.7 µM in [10].

As for `CC(C)N(Cc1ccccc1)S(=O)(=O)c1n[nH]c(C(C)(C)C)n1`, the TGI in assay [1], in [2], in [3], in assay [4], in [5] and in [6] was greater than 100 µM throughout. The TGI in assay [8], in assay [9] and in assay [10] was greater than 100 µM in each case.
